Assay results: ChEMBL document CHEMBL5050844 (2019)

Legend:
[1] = Induction of anti-CD3/CD28 antibodies-stimulated human T cell activation at 1 uM assessed fold increase in IL-2 secretion measured by ELISA assay; format: functional, T cell line
[2] = Induction of anti-CD3/CD28 antibodies-stimulated human T cell activation at 1 uM assessed fold increase in CD25 expression measured by ELISA assay; format: functional, T cell line
[3] = Induction of anti-CD3/CD28 antibodies-stimulated human T cell activation at 0.3 uM assessed fold increase in IL-2 secretion measured by ELISA assay; format: functional, T cell line
[4] = Induction of anti-CD3 antibodies-stimulated human T cell activation at 1 uM assessed fold increase in IL-2 secretion measured by ELISA assay; format: functional, T cell line; also: reference of the scale not given here
[5] = Induction of anti-CD3/CD28 antibodies-stimulated human T cell activation at 0.3 uM assessed fold increase in CD25 expression measured by ELISA assay; format: functional, T cell line
[6] = Induction of anti-CD3 antibodies-stimulated human T cell activation at 1 uM assessed fold increase in CD25 expression measured by ELISA assay; format: functional, T cell line; also: reference of the scale not given here
[7] = biological target: E3 ubiquitin-protein ligase CBL-B (Homo sapiens, UniProt Q13191); experiment: Inhibition of N-terminal Avi-tagged human CBL-B (36 to 427 residues) incubated with 60 nM Src kinase for 1.5 hrs followed by incubation with fluorescently labeled UbcH5B-Ub for 1 hr and measured by TR-FRET assay; format: single protein
Chain of E3 ubiquitin-protein ligase CBL-B (Q13191 whole entry, the tested form may be a part): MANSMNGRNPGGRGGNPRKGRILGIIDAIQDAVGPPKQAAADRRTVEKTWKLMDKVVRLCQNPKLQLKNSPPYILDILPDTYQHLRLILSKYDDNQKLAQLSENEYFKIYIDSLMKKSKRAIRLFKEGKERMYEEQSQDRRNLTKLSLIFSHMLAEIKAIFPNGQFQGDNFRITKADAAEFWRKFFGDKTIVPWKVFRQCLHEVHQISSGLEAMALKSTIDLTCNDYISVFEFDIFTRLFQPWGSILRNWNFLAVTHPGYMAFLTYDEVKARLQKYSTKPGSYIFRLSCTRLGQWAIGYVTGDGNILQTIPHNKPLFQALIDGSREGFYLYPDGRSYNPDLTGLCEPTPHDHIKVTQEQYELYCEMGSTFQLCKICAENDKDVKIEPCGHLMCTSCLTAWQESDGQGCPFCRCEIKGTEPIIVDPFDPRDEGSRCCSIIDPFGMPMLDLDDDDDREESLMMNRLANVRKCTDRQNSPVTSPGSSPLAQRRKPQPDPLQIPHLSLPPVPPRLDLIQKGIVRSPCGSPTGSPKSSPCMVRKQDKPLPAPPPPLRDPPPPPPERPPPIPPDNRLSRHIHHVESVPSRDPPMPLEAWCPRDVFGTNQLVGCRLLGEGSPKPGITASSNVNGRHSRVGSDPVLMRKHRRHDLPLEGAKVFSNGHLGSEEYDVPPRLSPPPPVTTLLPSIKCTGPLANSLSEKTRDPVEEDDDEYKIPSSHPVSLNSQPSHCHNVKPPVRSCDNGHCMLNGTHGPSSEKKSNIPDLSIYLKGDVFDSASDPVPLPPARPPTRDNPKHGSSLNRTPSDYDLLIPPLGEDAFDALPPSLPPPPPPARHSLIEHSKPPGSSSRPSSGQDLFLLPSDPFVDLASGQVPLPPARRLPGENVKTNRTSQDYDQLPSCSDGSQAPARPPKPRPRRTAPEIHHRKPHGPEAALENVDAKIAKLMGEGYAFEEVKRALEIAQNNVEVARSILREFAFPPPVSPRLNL

Compound	IC50 [7]	fold change (FC) [1]	fold change (FC) [2]	fold change (FC) [3]	fold change (FC) [4]	fold change (FC) [5]	fold change (FC) [6]	other results
Cn1cnnc1CC1(c2cccc(N3Cc4c(cc(C(F)(F)C(=O)O)cc4C(F)(F)F)C3=O)c2)COC1	–	1.01	1.01	1.01	<=0.05	1.01	0.601	–
C[C@H](Cc1nncn1C)c1cc(-c2cn[nH]c2)nc(N2Cc3c(cccc3C(F)(F)F)C2=O)c1	–	<=1	<=1	<=1	0.051	<=1	<=0.6	–
Cc1cn(C)c(SC(C)c2ccnc(NC(=O)c3ccc4ccccc4n3)c2)n1 (stereo not given)	> 10 µM	–	–	–	–	–	–	–
C[C@@H]1CN(Cc2cc3c(c(C(F)(F)F)c2)CN(c2cccc(-c4c(-c5nncn5C)cnn4C)c2)C3=O)C[C@H](C)O1	< 0.1 µM	–	–	–	–	–	–	–
Cc1cnn2c(C(=O)Nc3cccc(C4(Cc5nncn5C)COC4)c3)cc(C(F)(F)F)nc12	–	1.01	1.01	<=1	<=0.05	1.01	0.601	–
Cn1cnnc1CC1(c2cccc(N3Cc4c(cc(C5=CN6CCC5CC6)cc4C(F)(F)F)C3=O)c2)COC1	–	2.51	1.01	1.01	<=0.05	1.01	0.601	–
C[C@H](Sc1nncn1C)c1cccc(NC(=O)c2cc(C(=O)N3CCC[C@H]3C)ccn2)c1	> 10 µM	–	–	–	–	–	–	–
C[C@@H](Cc1n[nH]cc1CO)c1cccc(N2Cc3c(cccc3C(F)(F)F)C2=O)c1	> 10 µM	–	–	–	–	–	–	–
C[C@@H]1CN(Cc2cc3c(c(C(F)(F)F)c2)CN(c2cccc(-c4c(-c5nncn5C)cnn4C)c2)C3=O)CCO1	< 0.1 µM	–	–	–	–	–	–	–
Cn1cnnc1CC1(c2cccc(N3Cc4c(cc(CN5CCC(F)CC5)cc4C4CC4)C3=O)c2)COC1	< 0.1 µM	–	–	–	–	–	–	–
C[C@H](Cc1nncn1C)c1cc(N2Cc3c(cccc3C(F)(F)F)C2=O)nc(C2(C)CC2)c1	–	1.01	1.01	1.01	0.051	1.01	<=0.6	–
CN(c1cc2c(c(C(F)(F)F)c1)CN(c1cccc([C@@](C)(F)C(F)(F)c3nncn3C)c1)C2=O)[C@@H]1CNC[C@@H]1F	–	2.51	1.01	1.01	0.101	1.01	0.601	–
Cn1cnnc1CC1(c2cccc(NC(=O)c3nc(C(F)(F)F)cs3)c2)COC1	–	2.51	1.01	1.01	<=0.05	1.01	0.601	–
Cn1cnnc1OC1(c2cccc(N3Cc4c(cc(CN5CCC(F)CC5)cc4C(F)(F)F)C3=O)c2)COC1	–	2.51	1.31	1.01	<=0.05	1.01	0.601	–
C[C@H](Cc1nncn1C)c1cc(C2CCOCC2)nc(N2Cc3c(cccc3C(F)(F)F)C2=O)c1	–	1.01	1.01	1.01	<=0.05	1.01	<=0.6	–
Cc1cc(C(=O)Nc2cccc(C3(Cc4nncn4C(F)F)COC3)c2)nc(C2CC2)n1	< 0.1 µM	–	–	–	–	–	–	–
CC(c1cc2c(c(C(F)(F)F)c1)CN(c1cccc(C3(C(F)(F)c4nncn4C)COC3)c1)C2=O)N1CC[C@H](F)C1 (stereo not given in full)	< 0.1 µM	–	–	–	–	–	–	–
CN(c1cc2c(c(C(F)(F)F)c1)CN(c1cccc([C@@](C)(F)C(F)(F)c3nncn3C)c1)C2=O)[C@H]1CNC[C@H]1F	–	2.51	1.31	1.01	0.151	1.01	0.801	–
Cn1cnnc1CC1(c2cccc(NC(=O)c3nc(C4CC4)cs3)c2)COC1	–	1.01	1.01	<=1	<=0.05	1.01	<=0.6	–
Cc1cc(C(=O)Nc2cccc(-c3c(-c4nncn4C)cnn3C)c2)nc(C2CC2)n1	–	1.01	1.01	1.01	0.101	1.01	0.601	–
Cc1cc(C(=O)Nc2cccc(C3(Cc4nncn4C)COC3)c2)n2nc(C(F)(F)F)cc2n1	–	1.01	1.01	1.01	<=0.05	1.01	0.601	–
Cc1cc(C(=O)Nc2cccc([C@]3(Cc4nncn4C)CCOC3)c2)nc(C2CC2)n1 (single isomer, unassigned)	–	2.51	1.01	1.01	0.051	1.01	0.601	–
Cn1cnnc1CC1(c2cccc(NC(=O)c3csc(C4CC4)n3)c2)COC1	–	1.01	1.01	1.01	0.051	1.01	0.601	–
Cn1cnnc1[C@@H](F)C1(c2cccc(N3Cc4c(cc(CN5C6CCCC5CC6)cc4C(F)(F)F)C3=O)c2)COC1 (stereo in doubt; 675a)	–	–	–	–	–	–	–	fold change (FC) ([2]; 1 µM): 1.31; fold change (FC) ([4]; 1 µM): 0.101; fold change (FC) ([5]; 0.3 µM): 1.01; fold change (FC) ([6]; 1 µM): >=1.001
Cc1cc(C(=O)Nc2cccc(C3(Cc4nncn4C)COC3)c2)n2nccc2n1	–	1.01	1.01	1.01	<=0.05	1.01	0.601	–
C[C@H](Cc1nncn1C)c1cc(-c2cncs2)nc(N2Cc3c(cccc3C(F)(F)F)C2=O)c1	–	1.01	1.01	1.01	0.051	1.01	<=0.6	–
Cn1cnnc1[C@H](F)C1(c2cccc(N3Cc4c(cc(CN5C6CCCC5CC6)cc4C(F)(F)F)C3=O)c2)COC1 (stereo in doubt; 675b)	–	–	–	–	–	–	–	fold change (FC) ([2]; 1 µM): 1.31; fold change (FC) ([5]; 0.3 µM): 1.31
Cn1cnnc1CC1(c2cccc(NC(=O)c3ccnc4ccnn34)c2)COC1	–	2.51	1.01	1.01	<=0.05	1.01	0.601	–
Cn1cnnc1CC1(c2cccc(N3Cc4c(ccc(F)c4C4CC4)C3=O)c2)COC1	–	1.01	1.01	1.01	0.051	1.01	0.601	–
Cn1cnnc1-c1cnn(C)c1-c1cccc(N2Cc3c(cccc3C(F)(F)F)C2=O)c1	–	1.01	1.01	1.01	0.051	1.01	0.601	–

Now from value to compound, other results behind:

IC50 [7]	Compound	fold change (FC) [1]	fold change (FC) [2]	fold change (FC) [3]	fold change (FC) [4]	fold change (FC) [5]	fold change (FC) [6]	other results
< 0.1 µM	Cn1cnnc1CC1(c2cccc(N3Cc4c(cc(CN5CC[C@@H]6NCCO[C@@H]6C5)cc4C(F)(F)F)C3=O)c2)COC1 (relative stereo)	–	–	–	–	–	–	–
< 0.1 µM	Cn1cnnc1CC1(c2cccc(N3Cc4c(cc(CN5CC[C@@H]6OCC[C@@H]6C5)cc4C(F)(F)F)C3=O)c2)COC1 (relative stereo)	–	–	–	–	–	–	–
< 0.1 µM	Cn1cnnc1CC1(c2cccc(N3Cc4c(cc(CN5CC[C@@H](F)[C@H](F)C5)cc4C(F)(F)F)C3=O)c2)COC1	–	–	–	–	–	–	–
< 0.1 µM	Cn1cnnc1CC1(c2cccc(N3Cc4c(cc(CN5CCOC6(CCOC6)C5)cc4C(F)(F)F)C3=O)c2)COC1 (stereo not given)	–	–	–	–	–	–	–
< 0.1 µM	Cn1cnnc1CC1(c2cccc(N3Cc4c(cc(CN5CCOC6(CC6)C5)cc4C(F)(F)F)C3=O)c2)COC1	–	–	–	–	–	–	–
< 0.1 µM	COC[C@@H]1CN(Cc2cc3c(c(C(F)(F)F)c2)CN(c2cccc(C4(Cc5nncn5C)COC4)c2)C3=O)CCO1	–	–	–	–	–	–	–
< 0.1 µM	Cn1cnnc1CC1(c2cccc(N3Cc4c(cc(CN5CC[C@H](F)[C@@H](F)C5)cc4C(F)(F)F)C3=O)c2)COC1	–	–	–	–	–	–	–
< 0.1 µM	Cn1cnnc1CC1(c2cccc(N3Cc4c(cc(CN5CCc6ccncc6C5)cc4C(F)(F)F)C3=O)c2)COC1	–	–	–	–	–	–	–
< 0.1 µM	Cn1cnnc1CC1(c2cccc(N3Cc4c(cc(CN5CCc6cc(C#N)ccc6C5)cc4C(F)(F)F)C3=O)c2)COC1	–	–	–	–	–	–	–
< 0.1 µM	Cn1cnnc1CC1(c2cccc(N3Cc4c(cc(CN5CCOC(C6CC6)C5)cc4C(F)(F)F)C3=O)c2)COC1 (stereo not given)	–	–	–	–	–	–	–
< 0.1 µM	Cn1cnnc1CC1(c2cccc(N3Cc4c(cc(CN5CCOC(C)(C)C5)cc4C(F)(F)F)C3=O)c2)COC1	–	–	–	–	–	–	–
< 0.1 µM	Cn1cnnc1CC1(c2cccc(N3Cc4c(cc(CN5CCC(F)(F)C(O)C5)cc4C(F)(F)F)C3=O)c2)COC1 (stereo not given)	–	–	–	–	–	–	–
< 0.1 µM	C[C@H]1CCN(Cc2cc3c(c(C(F)(F)F)c2)CN(c2cccc(C4(Cc5nncn5C)COC4)c2)C3=O)C[C@H]1F	–	–	–	–	–	–	–
< 0.1 µM	Cn1cnnc1CC1(c2cccc(N3Cc4c(cc(CN5CCO[C@H](CO)C5)cc4C(F)(F)F)C3=O)c2)COC1	–	–	–	–	–	–	–
< 0.1 µM	COc1ccc2c(c1)CN(Cc1cc3c(c(C(F)(F)F)c1)CN(c1cccc(C4(Cc5nncn5C)COC4)c1)C3=O)CC2	–	–	–	–	–	–	–
< 0.1 µM	Cn1cnnc1CC1(c2cccc(N3Cc4c(cc(CN5CCOC(CF)C5)cc4C(F)(F)F)C3=O)c2)COC1 (stereo not given)	–	–	–	–	–	–	–
